Laboratory results taken from patent US20230226089A1, “METHODS AND COMPOSITIONS FOR TREATING DISEASES ASSOCIATED WITH SENESCENCE” (Atropos Therapeutics, Inc., priority 2019, published 2023).

Experiments:
HGPS fibroblasts = assay: Senescent cells (ATRX foci vs nuclear area) in progeria patient fibroblasts; type: cell-based, human
Method: Normal diploid fibroblasts (NDF) and fibroblasts from a patient with premature aging syndrome (HGPS) were used to model human skin and to determine the effect of calcitriol on senescence in these cells. Calcitrol, a synthetic version of Vitamin D3, can reverse some symptoms of progeria. To assess the effect of calcitrol on senescence NDF and HGPS fibroblasts were cultured and treated with 0.5 μM calcitriol for up to 10 days. Cells were then stained for SA-β-gal. FIG. 11A and FIG. 11B show representative images of SA-β-gal negative and positive cells respectively. […] This experiment was repeated at least three times using different passages, a representative similarly passaged experiment is shown. […] The horizontal line demarcates the 90th percentile in ATRX foci number, a stringent definition of the senescent state. The vertical line demarcates the 70th percentile of nuclear area. Cells in the upper right quadrant are senescent (ATRX^highNV^large). […]
The natural extracts were also tested on fibroblast cells as described in Example 4. NDF and HGPS fibroblasts were treated with the natural product extracts for 7 days and then assessed for ATRX foci number, cell size and cell number, as indicated in the experimental design in FIG. 19. […] The data shown is representative of at least two different experiments for each mixture analyzed at multiple doses and multiple times.

LS8817^TetONFMDM2 cells = assay: SA-β-gal positive cells in LS8817 TetON FLAG-MDM2 cells; type: cell-based
Method: The ability of tipifarnib to induce senescence was confirmed in the LS8817^TetONFMDM2 cells used in Example 2. LS8817^TetONFMDM2 cells were treated with either doxycycline alone for 8 days (DOX, black), doxycycline for three days followed by […] of 10 μg/ml doxycycline and 0.2 μM palbociclib (PD+DOX, Brown), or doxycycline for two days followed by three days of doxycycline and palbociclib followed by five days of doxycycline+palbociclib+0.1 μM tipifarnib (PD+DOX->tipi, green). ATRX foci and nuclear size were evaluated as describe previously. […] ATRX foci are shown in green, and DAPI staining in blue. […] The cells treated with 3 days of doxycycline and palbociclib followed by 5 days of tipifarnib had SA-β-gal in about 60% of cells compared to the cells treated with doxycycline and palbociclib for 8 days which had SA-β-gal in less than 10% of cells. Treatment with tipifarnib caused a greater than 6-fold increase in the number of senescent cells.

With `C=C1/C(=C\C=C2/CCC[C@]3(C)[C@@H]([C@H](C)CCCC(C)(C)O)CC[C@@H]23)C[C@@H](O)C[C@@H]1O` [calcitriol] the “accumulation of senescent cells (ATRX foci number, nuclear size distribution)” value (HGPS fibroblasts; 0.5 μM calcitriol up to 10 days) was “decreased the accumulation of senescent cells” and the “percentage of senescent cells (ATRX high, large nuclear area quadrant)” value (HGPS fibroblasts; HGPS cells, treated 7 days, about 10% without treatment) was “about 0%”.

With `CC(=O)c1c(C)c2cnc(Nc3ccc(N4CCNCC4)cn3)nc2n(C2CCCC2)c1=O` [palbociclib] the “cells positive for SA-β-gal” value (LS8817^TetONFMDM2 cells; doxycycline and palbociclib for 8 days) was “less than 10%” and the “cells SA-β-gal positive” value (LS8817^TetONFMDM2 cells; palbociclib alone (without doxycycline)) was “about 80%”.

`Cn1cncc1[C@@](N)(c1ccc(Cl)cc1)c1ccc2c(c1)c(-c1cccc(Cl)c1)cc(=O)n2C` [tipifarnib] was tested, and the “cells positive for SA-β-gal” value (LS8817^TetONFMDM2 cells; 3 days doxycycline and palbociclib followed by 5 days tipifarnib) was “about 60%” and the “increase in the number of senescent cells” value (LS8817^TetONFMDM2 cells; tipifarnib added vs doxycycline and palbociclib 8 days) was “greater than 6 fold”.
